Patent US20090203708A1, “NOVEL SUBSTITUTED-1-H-QUINAZOLINE-2,4-DIONE DERIVATIVES, PREPARATION METHOD THEREOF AND PHARMACEUTICAL COMPOSITION CONTAINING THE SAME” (Korea Research Institute of Chemical Technology, priority 2006, published 2009)

Legend:
[1] = biological target: T1, HeLa cells transfected with human 5-HT6 receptor (Homo sapiens, UniProt P50406); assay: Serotonin-stimulated cAMP accumulation in HeLa cells (EIA); format: cell-based
T1 construct: expressed in transfected cells; host or cells: HeLa

[2] = biological target: human serotonin 5-HT6 receptor (Homo sapiens, UniProt P50406); assay: [3H]LSD binding assay for cloned 5-HT6 receptors
Chain of human serotonin 5-HT6 receptor (P50406 whole entry): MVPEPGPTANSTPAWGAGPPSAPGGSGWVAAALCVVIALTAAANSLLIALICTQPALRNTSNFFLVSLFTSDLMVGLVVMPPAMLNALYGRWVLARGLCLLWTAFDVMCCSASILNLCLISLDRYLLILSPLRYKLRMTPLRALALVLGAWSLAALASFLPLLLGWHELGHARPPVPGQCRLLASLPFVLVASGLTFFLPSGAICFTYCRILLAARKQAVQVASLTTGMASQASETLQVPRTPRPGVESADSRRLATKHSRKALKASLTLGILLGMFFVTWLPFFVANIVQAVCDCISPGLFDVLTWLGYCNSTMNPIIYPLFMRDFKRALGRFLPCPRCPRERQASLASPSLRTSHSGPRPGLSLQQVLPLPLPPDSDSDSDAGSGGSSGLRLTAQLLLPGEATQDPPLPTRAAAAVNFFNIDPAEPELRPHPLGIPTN

T1 sequence (P50406 whole entry): as above

melting point: 173 to 175 °C
effect on serotonin-stimulated cAMP accumulation (in words) ([1]; HeLa cells, FIG. 1): identified as 5-HT6 receptor antagonists
IC50 [2]: 3 nM
SMILES: CN1CCN(c2cc(Cl)cc3c2c(=O)n(C)c(=O)n3Cc2ccccc2)CC1 [Example 1, 1-benzyl-7-chloro-3-methyl-5-(4-methyl-piperazin-1-yl)-1H-quinazoline-2,4-dione]
antagonist activity compared with methiothepin [1]: weaker antagonist activity than methiothepin
